{"source": "patent US20250326722A1", "about": "(SHANGHAI HANSOH BIOMEDICAL CO., LTD., priority 2022, published 2025)", "assay": "Pharmacokinetic determination in mice (plasma)", "format": "in vivo, C57BL/6J mice", "conditions": "C57 mice, PO administration, 5 mpk; for AUC(0-inf) / half-life / MRT / Cmax: male, C57BL/6J, mouse, 5 mg/kg; for AUC(0-inf): read-out: Area under the curve AUC0-∞; for half-life: read-out: Half-life t1/2 (converted); for MRT: read-out: Mean residence time MRT; for Cmax: read-out: Plasma concentration Cmax", "method_in_brief": "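Male C57BL/6J mice (n=3 per route), fasted overnight, got 5 mg/kg PO in 10% Solutol HS15 or 1 mg/kg IV in 5% DMSO/10% Solutol HS15/85% PBS. Orbital blood was sampled at 0.083 (IV only), 0.25, 0.5, 1, 2, 4, 8 and 24 h. EDTA-K2 plasma was quantified by LC-MS/MS for PK parameters.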", "data": [{"smiles": "O=C1c2ncccc2CN1c1ccc(N[C@H]2CC[C@H](Nc3ncc(C(F)(F)F)nn3)C2)nc1", "note": "[Example 144]", "values": [{"measurement": "Time to peak tmax", "value": 1, "unit": "h"}, {"measurement": "AUC(0-inf)", "value": 15000, "unit": "ng·h/mL"}, {"measurement": "half-life", "value": 2.8, "unit": "h"}, {"measurement": "MRT", "value": 4, "unit": "h"}, {"measurement": "Cmax", "value": 2820, "unit": "ng/mL"}]}, {"smiles": "O=C1c2c(cccc2C(F)(F)F)CN1c1ccc(N[C@H]2CC[C@H](Nc3ncc(C(F)(F)F)nn3)C2)nc1", "note": "[Example 157, 7-(Trifluoromethyl)-2-(6-(((1S,3S)-3-((6-(trifluoromethyl)-1,2,4-triazin-3-yl)amino)cyclopentyl)amino)pyridin-3-yl) isoindolin-1-one]", "values": [{"measurement": "Time to peak tmax", "value": 0.5, "unit": "h"}, {"measurement": "AUC(0-inf)", "value": 6200, "unit": "ng·h/mL"}, {"measurement": "half-life", "value": 3.1, "unit": "h"}, {"measurement": "MRT", "value": 2.6, "unit": "h"}, {"measurement": "Cmax", "value": 2190, "unit": "ng/mL"}]}, {"smiles": "Cc1cc2c(cn1)CN(c1ccc(N[C@H]3CC[C@H](Nc4ncc(C(F)(F)F)nn4)C3)nc1)C2=O", "note": "[Example 148, 6-Methyl-2-(6-(((1S,3S)-3-((6-(trifluoromethyl)-1,2,4-triazin-3-yl)amino)cyclopentyl)amino)pyridin-3-yl)-2,3-dihydro-1H-pyrrolo[3,4-c]pyridin-1-one]", "values": [{"measurement": "Time to peak tmax", "value": 1, "unit": "h"}, {"measurement": "AUC(0-inf)", "value": 59800, "unit": "ng·h/mL"}, {"measurement": "half-life", "value": 3.4, "unit": "h"}, {"measurement": "MRT", "value": 4.3, "unit": "h"}, {"measurement": "Cmax", "value": 13500, "unit": "ng/mL"}]}]}
